Measured values: patent publication US11230556B2 (Merck Sharp & Dohme Corp., priority 2016, dated 2022)

Biological target: T1, human M4 muscarinic acetylcholine receptor (Homo sapiens, UniProt P08173)
T1 construct: expressed in transfected cells; host or cells: CHO-K1
T1 sequence (P08173 1-479): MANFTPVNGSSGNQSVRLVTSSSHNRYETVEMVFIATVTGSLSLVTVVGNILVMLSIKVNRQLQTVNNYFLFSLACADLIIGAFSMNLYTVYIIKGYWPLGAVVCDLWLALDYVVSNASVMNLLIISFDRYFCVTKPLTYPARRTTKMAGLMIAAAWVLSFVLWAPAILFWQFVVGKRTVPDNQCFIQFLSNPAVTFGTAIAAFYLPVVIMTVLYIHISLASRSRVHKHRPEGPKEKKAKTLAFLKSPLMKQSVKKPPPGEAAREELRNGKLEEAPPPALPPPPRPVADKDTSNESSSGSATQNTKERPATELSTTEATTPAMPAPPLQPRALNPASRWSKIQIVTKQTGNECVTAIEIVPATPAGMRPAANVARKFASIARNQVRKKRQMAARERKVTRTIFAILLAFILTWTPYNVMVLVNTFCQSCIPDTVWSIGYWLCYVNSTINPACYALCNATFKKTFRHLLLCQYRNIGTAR
Assay: human FLIPR-based M4 PAM assay (CHO-K1 cells with human M4 receptor and Gαqi5, calcium dye fluorescence, acetylcholine at 20% of maximum response)
Format: cell-based
Details: inflection point (IP) of 4 parameter logistic dose response curve, human M4 receptor + Gαqi5, FLIPR Tetra
In short: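 The FLIPR read recorded 4 min after compound was added across a concentration range, then 3.5 min after acetylcholine giving 20% of its maximal response, with an occasional extra EC70 addition. Cells were dye-loaded for about 1 h at 37 °C. Potency is the curve inflection point from a four-parameter logistic fit.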

SMILES	EC50 [nM]
COc1ccc(OC2CCN(c3nc4nn(CCO)c(=O)n4cc3C)CC2)cn1 [Example 14, 2-(2-hydroxyethyl)-7-(4-((6-methoxypyridin-3-yl)oxy)piperidin-1-yl)-6-methyl-[1,2,4]triazolo[4,3-a]pyrimidin-3(2H)-one]	69
COc1ccc(OC2CCN(c3nc4[nH][nH]c(=O)c4cc3C)CC2)cn1 [Example 23, 6-(4-((6-methoxypyridin-3-yl)oxy)piperidin-1-yl)-5-methyl-1,2-dihydro-3H-pyrazolo[3,4-b]pyridin-3-one]	68
COc1ccc(OC2CCN(c3nc4[nH]ncc4cc3C)CC2)cn1 [Example 63, 6-(4-((6-Methoxypyridin-3-yl)oxy)piperidin-1-yl)-5-methyl-1H-pyrazolo[3,4-b]pyridine]	368
COc1ccc(OC2CCN(c3nc4c(C)n[nH]c4cc3C)CC2)cn1 [Example 65, 5-(4-((6-Methoxypyridin-3-yl)oxy)piperidin-1-yl)-3,6-dimethyl-1H-pyrazolo [4,3-b]pyridine]	1650
Cc1cn2c(=O)[nH]nc2nc1N1CCC(Oc2ccc3c(c2)C(=O)N(C2CC2)C3)CC1 [Example 6, 7-(4-((2-cyclopropyl-3-oxoisoindolin-5-yl)oxy)piperidin-l-yl)-6-methyl-[1,2,4]triazolo[4,3-a]pyrimidin-3(2H)-one]	168
Cc1cc2c(=O)[nH]n(C)c2nc1N1CCC(Oc2cccc(C#N)c2)CC1 [Example 26, 3-((1-(1,5-dimethyl-3-oxo-2,3-dihydro-1H-pyrazolo[3,4-b]pyridin-6-yl)piperidin-4-yl)oxy)benzonitrile]	208
COc1ccc(OC2CCN(c3nc4nccn4c(Cl)c3C)CC2)cn1 [Example 28, 5-chloro-7-(4-((6-methoxypyridin-3-yl)oxy)piperidin-1-yl)-6-methylimidazo[1,2-a]pyrimidine]	589
Cc1cn2c(=O)[nH]nc2nc1N1CCC(Oc2cccc(C#N)c2)CC1 [Example 16, 3-((1-(6-methyl-3-oxo-2,3-dihydro-[1,2,4]triazolo[4,3-a]pyrimidin-7-yl)piperidin-4-yl)oxy)benzonitrile]	35
Cc1cn2c(=O)n(C)nc2nc1N1CCC(Oc2cccc(C#N)c2)CC1 [Example 17, 3-((1-(2,6-dimethyl-3-oxo-2,3-dihydro-[1,2,4]triazolo[4,3-a]pyrimidin-7-yl)piperidin-4-yl)oxy)benzonitrile]	36
Cc1cn2c(=O)n(C)nc2nc1N1CCC(Oc2ccccc2)CC1 [Example 19, 2,6-dimethyl-7-(4-phenoxypiperidin-1-yl)-[1,2,4]triazolo[4,3-a]pyrimidin-3(2H)-one]	54
Cc1cn2c(=O)[nH]nc2nc1N1CCC(Oc2ccc3c(cnn3C)c2)CC1 [Example 18]	338
Cc1cc2c(nc1N1CCC(Oc3ccccc3)CC1)CNC2 [Example 35, 3-methyl-2-(4-phenoxypiperidin-1-yl)-6,7-dihydro-5H-pyrrolo[3,4-b]pyridine]	76
COc1ccc(OC2CCN(c3nc4nnc(C(F)(F)F)n4cc3C)CC2)cn1 [Example 80, 7-(4-((6-Methoxypyridin-3-yl)oxy)piperidin-1-yl)-6-methyl-3-(trifluoromethyl)-[1,2,4]triazolo[4,3-a]pyrimidine]	3090
Cc1cn2c(=O)n(C)nc2nc1N1CCC(OCC2(C)CC2)CC1 [Example 3, 2,6-Dimethyl-7-(4-((1-methylcyclopropyl)methoxy)piperidin-1-yl)-[1,2,4]triazolo[4,3-a]pyrimidin-3(2H)-one]	79
Cc1cn2c(=O)n(C)nc2nc1N1CCC(OCC2CCCC2)CC1 [Example 12, 7-(4-(cyclopentylmethoxy)piperidin-1-yl)-2,6-dimethyl-[1,2,4]triazolo[4,3-a]pyrimidin-3(2H)-one]	718
Cc1cn2c(=O)n(C)nc2nc1N1CC[C@@H](Oc2ccc3c(cnn3C)c2)[C@@H](F)C1 [Example 10, 7-((3S,4R)-3-fluoro-4-((1-methyl-1H-indazol-5-yl)oxy)piperidin-1-yl)-2,6-dimethyl-[1,2,4]triazolo[4,3-a]pyrimidin-3(2H)-one]	81
Cc1cn2c(=O)[nH]nc2nc1N1CCC(OCC2CCCC2)CC1 [Example 8, 7-(4-(cyclopentylmethoxy)piperidin-1-yl)-6-methyl-[1,2,4]triazolo[4,3-a]pyrimidin-3(2H)-one]	242

Second part, the compound after the results:

EC50 [nM]	SMILES
109	COc1ccc(OC2CCN(c3nc4c(cc3C)CN(C(=O)[C@H](C)O)C4)CC2)cn1 [Example 51, (S)-2-hydroxy-1-(2-(4-((6-methoxypyridin-3-yl)oxy)piperidin-1-yl)-3-methyl-5,7-dihydro-6H-pyrrolo[3,4-b]pyridin-6-yl)propan-1-one]
1380	COc1ccc(OC2CCN(c3nc4cnn(C)c4cc3C)CC2)cn1 [Example 66, 5-(4-((6-methoxypyridin-3-yl)oxy)piperidin-1-yl)-1,6-dimethyl-1H-pyrazolo[4,3-b]pyridine]
249	COc1ccc(OC2CCN(c3nc4c(cc3C)c(=O)[nH]n4C)CC2)cn1 [Example 25, 6-(4-((6-methoxypyridin-3-yl)oxy)piperidin-1-yl)-1,5-dimethyl-1,2-dihydro-3H-pyrazolo[3,4-b]pyridin-3-one]
193	COc1ccc(OC2CCN(c3nc4c(cc3C)CNC4=O)CC2)cn1 [Example 1, (4-((6-Methoxypyridin-3-yl)oxy)piperidin-1-yl)-3-methyl-5H-pyrrolo[3,4-b]pyridin-7(6H)-one]
22	COc1ccc(OC2CCN(c3nc4c(cc3C)C(=O)OC4)CC2)cn1 [Example 21, 2-(4-((6-Methoxypyridin-3-yl)oxy)piperidin-1-yl)-3-methylfuro[3,4-b]pyridin-5(7H)-one]
489	COc1ccc(OC2CCN(c3nc4c(cc3C)CN(C(=O)C3(C)CCCC3)C4)CC2)cn1 [Example 44, (2-(4-((6-methoxypyridin-3-yl)oxy)piperidin-1-yl)-3-methyl-5,7-dihydro-6H-pyrrolo[3,4-b]pyridin-6-yl)(1-methylcyclopentyl)methanone]
292	COc1ccc(OC2CCN(c3nc4c(cc3C)C(=O)C(C)(C)C4)CC2)cn1 [Example 73, 2-(4-((6-Methoxypyridin-3-yl)oxy)piperidin-1-yl)-3,6,6-trimethyl-6,7-dihydro-5H-cyclopenta[b]pyridin-5-one]
502	COc1ccc(OC2CCN(c3nc4c(cc3C)CN(C(=O)CCN(C)C)C4)CC2)cn1 [Example 53, 3-(dimethylamino)-1-(2-(4-((6-methoxypyridin-3-yl)oxy)piperidin-1-yl)-3-methyl-5,7-dihydro-6H-pyrrolo[3,4-b]pyridin-6-yl)propan-1-one]
378	COc1ccc(OC2CCN(c3nc4c(cc3C)CN(C(=O)C3CC3(F)F)C4)CC2)cn1 (centres unmarked) [Example 57, (2,2-difluorocyclopropyl)(2-(4-((6-methoxypyridin-3-yl)oxy)piperidin-1-yl)-3-methyl-5,7-dihydro-6H-pyrrolo[3,4-b]pyridin-6-yl)methanone]
63	COc1ccc(OC2CCN(c3nc4c(cc3C)C(=O)C(F)(F)C4)CC2)cn1 [Example 70, 6,6-difluoro-2-(4-((6-methoxypyridin-3-yl)oxy)piperidin-1-yl)-3-methyl-6,7-dihydro-5H-cyclopenta[b]pyridin-5-one]
235	COc1ccc(OC2CCN(c3nc4c(cc3C)CN(C(=O)C(C)(C)C)C4)CC2)cn1 [Example 45, 1-(2-(4-((6-methoxypyridin-3-yl)oxy)piperidin-1-yl)-3-methyl-5,7-dihydro-6H-pyrrolo[3,4-b]pyridin-6-yl)-2,2-dimethylpropan-1-one]
165	COc1ccc(OC2CCN(c3nc4c(cc3C)S(=O)(=O)NC4)CC2)cn1 [Example 75, 5-(4-((6-Methoxypyridin-3-yl)oxy)piperidin-1-yl)-6-methyl-2,3-dihydroisothiazolo[4,5-b]pyridine 1,1-dioxide]
